Test results as given in PMC9174720, “Evaluation of antioxidant and cytotoxic properties of phenolic N-acylhydrazones: structure–activity relationship” (Royal Society Open Science, 2022).
Where two headings read alike, the source gives them in different places.

What was measured:
[1] = system: MRC-5; experiment: MTT cytotoxicity assay on MRC-5 cells; type: cell-based; details: Homo sapiens, MRC5, MRC-5 cell line, read-out: Growth inhibitory effects IC50
Protocol: (§1) In this in vitro study, we investigated the influence of PheNAHs on two model systems: human colorectal carcinoma HCT-116 and human healthy fibroblast cell line MRC-5. Both cell lines of low passages were purchased from the European collection of authenticated cell cultures (ECACC) and were cultivated in Dulbecco's Modified Eagle Medium (DMEM) (Sigma, D5796) cell culture medium supplemented with 10% foetal bovine serum (Sigma, F4135-500 ML) and 1% penicillin/streptomycin (Sigma, P4333-100 ML) in 75 cm^2 culture flasks. The cells were maintained according to the standardized procedure in the incubator with humidified atmosphere supplemented with 5% CO2 at a physiological temperature of 37°C, and after a few passages and a confluence of about 80%, the cells were used in all in vitro experiments (Laboratory for Bioengineering protocol CB-003).
(§2) The ability of synthesized compounds to inhibit the growth of two different cell lines was estimated by a standardized 3-(4,5-dimethylthiazol-2-yl)-2,5-diphenyltetrazolium bromide (MTT) assay (Laboratory for Bioengineering protocol CB-005). The approximative number of 10 000 cells per well (in 96-well microplates) were seeded and kept in the incubator for 24 h to enable cell adhesion. After the incubation period, the cells were treated with investigated compounds in the concentration range from 0,1 to 500 µM dissolved in DMEM. Cytotoxic effect was evaluated 24 and 72 h from treatment by following the number of survived cells, thus the cell viability. MTT assay is based on spectrophotometric measurement of reduction rate of 3-(4,5-dimethylthiazol-2-yl)-2,5-diphenyltetrazolium bromide (MTT, Acros Organics, 158990010) to purple formazan crystals subsequently dissolved in DMSO (Fisher Chemical, D/4121/PB15) on a microplate reader (Rayto 2100C) at 550 nm. The percentage of the survived (viable) cells was estimated by dividing the absorbance of the treatment with the absorbance of the control (non-treated) cells and multiplied by 100 [47]. As positive controls, Leucovorin and Irinotecan were selected as compounds used in colon cancer treatment.
(§3) Biological activity was the result of two individual experiments, performed in triplicate for each dose. Statistical analyses were determined using the one-way analysis of variance (ANOVA) test for multiple comparisons, SPSS (Chicago, IL) statistical software package (SPSS for Windows, v. 17, 2008). The IC50 values were calculated from the dose curves by a computer program (CalcuSyn). IC50 values represent the half-maximal inhibitory concentration of tested compounds to measure the influence in inhibition of cell growth for 50%. […] At the beginning of the process of selecting the anti-cancer drug candidate, it is necessary to make a rough preselection between the tested substances. In vitro analysis on cancer and healthy cell lines is quantified in different ways, selectivity also. The selectivity index (SI) of tested drugs usually refers to the simple ratio of IC50 values determined for cancer and healthy cells. Also, the SI can be used for the expression of many other examples, such as SI between antibacterial and antiviral effect, discrimination of the drugs effect between many cancer cell lines, etc. In our experimentation, the values greater than ‘1’ indicate selectivity of the tested substance toward cancer cell line.

[2] = system: HCT-116; experiment: MTT cytotoxicity assay on HCT-116 cells; type: cell-based, human; details: for IC50: Homo sapiens, HCT-116 cell line, read-out: Growth inhibitory effects IC50; for selectivity index (SI): ratio of IC50 values of MRC-5 and HCT-116, values greater than 1 indicate selectivity toward cancer cell line
Protocol: as §1, §2, §3

[3] = DPPH radical scavenging assay; type: biochemical; details: for IC50: DPPH 0.05 mM in methanol, incubated 20 and 60 min, absorbance at 517 nm, mean ± s.d. of three measurements, read-out: IC50 for inactivation of DPPH free radical; for stoichiometric factor (SF): SF=[DPPH]/(2×IC50), good antioxidant if SF ≥ 2
Protocol: The antioxidant screening of all PheNAHs was performed using the 2,2-diphenyl-1-picrylhydrazyl (DPPH) method. The solution of DPPH radical in methanol (0.05 mM, 1 ml) was mixed with the tested compound (20 µl of different concentrations in dimethyl sulfoxide (DMSO) and 980 µl of methanol). The reaction mixture was incubated in the dark at room temperature for 20 and 60 min after which the absorbance of the sample was measured spectrophotometrically at 517 nm. All measurements were performed in triplicate. Methanol was used as a control solution, whereas quercetin and nordihydroguaiaretic acid (NDGA) were used as reference compounds. […] IC50 is defined as the minimal concentration of tested compound required for reaching 50% of a maximum scavenging capacity. The results were presented as mean values ± standard deviation (s.d.) of three independent measurements. The stoichiometric factor (SF) was calculated for all compounds using the equation [45, 46]:1 SF=[DPPH]/(2×IC50)

Row | Structure (SMILES) | IC50 ([1]; 24 h exposure) [µM] | IC50 ([1]; 72 h exposure) [µM] | IC50 ([2]; 24 h exposure) [µM] | IC50 ([2]; 72 h exposure) [µM] | selectivity index (SI) ([2]; after 24 h exposure) | selectivity index (SI) ([2]; after 72 h exposure) | IC50 [3] [µM] | stoichiometric factor (SF) [3]
1 | O=C(N/N=C/c1ccc(O)cc1O)c1cc(O)c(O)c(O)c1 [5g] | 76.4 | 78.6 | 99.9 | 77.3 | 0.76 | 1.02 | 0.9 ± 0.1 | 13.9
2 | O=C(N/N=C/c1ccc(O)cc1)c1ccccc1 [1c] | > 500 | > 500 | > 500 | > 500 |  |  | > 100 | 
3 | COc1cc(/C=N/NC(=O)c2cc(O)c(O)c(O)c2)ccc1O [5e] | > 500 | 45.8 | > 500 | 65.2 |  | 0.70 | 1.9 ± 0.1 | 6.6
4 | O=C(N/N=C/c1ccc(O)cc1O)c1ccccc1O [2g] | > 500 | > 500 | > 500 | 61.2 |  |  | > 100 | 
5 | COc1cc(C(=O)N/N=C/c2cccc(OC)c2O)ccc1O [4d] | > 500 | 128 | > 500 | 202 |  |  | > 100 | 
6 | O=C(N/N=C/c1ccc(O)cc1)c1ccc(O)cc1 [3c] | > 500 | > 500 | > 500 | > 500 |  |  | > 100 | 
7 | O=C(N/N=C/c1ccc(O)cc1)c1ccccc1O [2c] | > 500 | > 500 | > 500 | > 500 |  |  | > 100 | 
8 | O=C(N/N=C/c1ccccc1)c1ccc(O)cc1 [3a] | > 500 | > 500 | > 500 | > 500 |  |  | > 100 | 
9 | COc1cc(C(=O)N/N=C/c2ccc(O)c(O)c2)ccc1O [4h] | > 500 | > 500 | > 500 | > 500 |  |  | 3.4 ± 0.1 | 3.7
10 | COc1cc(/C=N/NC(=O)c2ccccc2O)cc(OC)c1O [2f] | > 500 | > 500 | > 500 | > 500 |  |  | 6.5 ± 0.4 | 1.9
11 | O=C(N/N=C/c1ccc(O)c(O)c1)c1ccccc1 [1h] | > 500 | > 500 | > 500 | > 500 |  |  | 2.93 ± 0.1 | 4.3
12 | O=C(N/N=C/c1ccc(O)cc1O)c1ccc(O)cc1 [3g] | > 500 | 440 | > 500 | 130 |  |  | > 100 | 
13 | COc1cc(C(=O)N/N=C/c2ccc(O)cc2)ccc1O [4c] | > 500 | > 500 | > 500 | > 500 |  |  | > 100 | 
14 | COc1cc(/C=N/NC(=O)c2ccc(O)cc2)cc(OC)c1O [3f] | > 500 | > 500 | > 500 | > 500 |  |  | 16.6 ± 0.2 | 0.8
15 | O=C(N/N=C/c1ccccc1)c1cc(O)c(O)c(O)c1 [5a] | 175 | 59.2 | 247 | 63.5 | 0.71 | 0.93 | 1.3 ± 0.1 | 9.6
16 | O=C(N/N=C/c1ccccc1O)c1ccc(O)cc1 [3b] | > 500 | > 500 | > 500 | 101 |  | >4.94 | > 100 | 
